These results are taken from patent publication US20240343761A1, “APELINERGIC MACROCYCLES AND USES THEREOF” (priority 2021, published 2024).

For one data set, the target named is T1, human APJ (hAPJ) (Homo sapiens, UniProt P35414).
T1 construct: expressed in transfected cells; cell membranes
T1 sequence (P35414 1-380): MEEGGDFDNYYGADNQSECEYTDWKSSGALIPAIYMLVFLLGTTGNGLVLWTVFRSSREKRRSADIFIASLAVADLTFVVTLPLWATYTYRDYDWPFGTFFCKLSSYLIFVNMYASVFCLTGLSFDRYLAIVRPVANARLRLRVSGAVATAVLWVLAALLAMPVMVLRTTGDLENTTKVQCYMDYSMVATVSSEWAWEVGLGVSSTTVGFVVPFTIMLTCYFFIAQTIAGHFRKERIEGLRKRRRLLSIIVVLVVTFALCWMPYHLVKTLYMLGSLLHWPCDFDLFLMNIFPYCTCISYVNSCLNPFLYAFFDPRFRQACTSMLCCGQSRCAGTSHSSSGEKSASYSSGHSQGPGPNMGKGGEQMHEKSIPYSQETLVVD
Nature of the data set: Competitive radioligand binding ([125I][Nle75,Tyr77][Pyr1]-Ape13) on membranes of HEK293 cells stably expressing human APJ. The following applies: Ki binding. On the procedure: HEK293 cells stably expressing YFP-tagged human APJ were cultured in DMEM medium supplemented with 10% FBS, at 37° C. under a humid atmosphere maintaining 5% CO2. Antibiotic G418 (400 μg/mL) was added to maintain a selection pressure for APJ-expressing cells while penicillin/streptomycin (0.1%) were used to prevent bacterial contamination.
Binding experiments were performed on cell membranes of HEK293 stably expressing the YFP-tagged human APJ receptor. Cells were frozen at −80° C. for storage and quickly thawed right before the experiments (1 min at 37° C.). […] The precipitate (cell membranes) was suspended in binding buffer (50 mM Tris-HCl, 0.2% BSA, pH 7.4). Binding assays were run in 96-well plates. […] (820 Ci/mmol)^3 and test ligand with a range of concentrations from 10^−1 to 10^−11 M in a total volume of 200 μL for 1 h at room temperature.
The incubation mixtures were filtered through a glass fiber filter (Millipore, pre-absorbed of PEI 0.5% for 2 h at 4° C.) to remove unbound ligands, and the filter membranes were washed three times with 170 μL cold binding buffer (4° C.). The γ emission was measured using a 1470 Wizard γ-counter from PerkinElmer (Waltham, USA) (80% efficiency).

The nature of data set [1]: Rat plasma stability (half-life in vitro). The data set is classed as in vitro ADME. The following applies: male, Sprague-Dawley, rat, plasma; for half-life at 0.182 mM: Table I, 37° C., up to 24 h. On the procedure: Plasma was obtained from male Sprague-Dawley rats by collecting blood in heparin tube and centrifugating at 13,000 rpm to remove blood cells. The isolated plasma was stored at −80° C. and thawed right before the test. In 96-well plate, 6 μL of peptide solution at 1 mM was incubated with 27 μL of plasma at 37° C. in an oven equipped with orbital shaker. Tightly fitted caps were used to seal the wells to avoid water evaporation during incubation. […] A 96-well UPLC plate was put at the bottom to collect the samples. Both plates were centrifuged at 500 g for 10 min at 4° C. to accelerate the filtration. […] The quantity of remaining peptide was plotted into an exponential one-phase decay curve using GraphPad Prism 8 which allowed to calculate peptide half-life. The results were presented as mean±SEM of at least 3 independent experiments, each done in simplicate.
The percentage of remaining analogue was calculated by doing the ratio between AU of compound and AUC of internal standard. Half-lives were extrapolated from curves.

The target in data set [2] is T2, hAPJ receptor (Homo sapiens, UniProt P35414).
T2 construct: expressed in transfected cells; host or cells: HEK293, transient transfection with PEI
T2 sequence (P35414 1-380): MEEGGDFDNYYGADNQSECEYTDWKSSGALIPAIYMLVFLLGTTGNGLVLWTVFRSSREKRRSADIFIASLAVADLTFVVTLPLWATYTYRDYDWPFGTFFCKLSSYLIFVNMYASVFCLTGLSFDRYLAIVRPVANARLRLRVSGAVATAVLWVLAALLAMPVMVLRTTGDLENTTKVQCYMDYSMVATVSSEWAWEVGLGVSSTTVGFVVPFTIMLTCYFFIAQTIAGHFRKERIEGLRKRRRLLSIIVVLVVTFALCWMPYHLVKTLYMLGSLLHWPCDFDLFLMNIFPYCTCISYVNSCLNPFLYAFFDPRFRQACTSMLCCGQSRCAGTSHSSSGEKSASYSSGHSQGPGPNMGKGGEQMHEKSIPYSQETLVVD
As to the kind of experiment: BRET-based Gαi1 activation assay in HEK293 cells. Type of data set: cell-based. The gist of the method: (§1)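 HEK293 cells in HBSS stimulated with analogs from 10^−5 to 10^−11 M, 5 min at 37 °C (Gαi1) or 30 min at room temperature (β-arrestin2).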

The target of data set [3] is T2, hAPJ receptor. As to the kind of experiment: BRET-based β-arrestin2 recruitment assay in HEK293 cells. The data set is classed as cell-based. The essentials: as §1
Background: BRET reads energy transfer from a luciferase to a nearby fluorophore.

Data set [4] has as its target T3, YFP-tagged human APJ receptor (human, UniProt P35414 1-380).
T3 construct: whole, on cells; also called hAPJ; APJ WT; not shown: YFP tag
T3 sequence (looked up): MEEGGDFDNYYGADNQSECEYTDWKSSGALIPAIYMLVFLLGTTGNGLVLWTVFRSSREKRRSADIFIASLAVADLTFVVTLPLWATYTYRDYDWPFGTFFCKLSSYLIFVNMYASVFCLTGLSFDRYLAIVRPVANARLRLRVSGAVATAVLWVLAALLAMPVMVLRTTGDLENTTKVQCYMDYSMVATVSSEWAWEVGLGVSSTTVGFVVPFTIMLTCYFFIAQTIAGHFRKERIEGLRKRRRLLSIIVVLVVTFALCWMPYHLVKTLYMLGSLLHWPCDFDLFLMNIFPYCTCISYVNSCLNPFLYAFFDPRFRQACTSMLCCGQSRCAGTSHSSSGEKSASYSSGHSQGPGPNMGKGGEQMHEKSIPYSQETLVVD
As to the kind of experiment: competitive radioligand binding, HEK293-hAPJ membranes.

Data set [5] has as its target T4, human APJ (transfected HEK293 cells, Gαi1 BRET assay) (human, UniProt P35414 1-380).
T4 sequence (looked up): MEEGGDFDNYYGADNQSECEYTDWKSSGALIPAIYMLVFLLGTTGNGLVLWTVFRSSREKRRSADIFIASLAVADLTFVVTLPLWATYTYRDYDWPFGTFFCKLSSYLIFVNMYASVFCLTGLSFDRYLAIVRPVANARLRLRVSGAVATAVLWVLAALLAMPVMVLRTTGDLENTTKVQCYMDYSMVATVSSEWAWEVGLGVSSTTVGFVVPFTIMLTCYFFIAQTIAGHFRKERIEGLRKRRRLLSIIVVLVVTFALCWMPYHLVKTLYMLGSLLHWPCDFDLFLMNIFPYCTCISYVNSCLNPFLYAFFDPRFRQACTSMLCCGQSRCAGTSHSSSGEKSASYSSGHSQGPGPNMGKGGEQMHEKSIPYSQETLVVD
As to the kind of experiment: cell-based or functional assay.

The target of data set [6] is T4, human APJ (transfected HEK293 cells, …). As to the kind of experiment: cell-based or functional assay. This is another data set of the same source.

Read-outs that look alike come from different tables or passages of the source. Bridge positions count the residues as written; N and C are the ends. Square brackets hold non-standard residues; d marks the D form. Ends that are not written are not given here. Peptide text beside a SMILES is read from it. * marks the point of attachment. Oic = O=C(O)[C@@H]1C[C@@H]2CCCC[C@@H]2N1; Phe(4-Br) = N[C@@H](Cc1ccc(Br)cc1)C(=O)O; Benzoyl(4-Br) = O=C(c1ccc(Br)cc1)*; AllylGly = C=CC[C@H](N)C(=O)O; Nle = CCCC[C@H](N)C(=O)O

The term Ki denotes a dissociation constant, usually derived from enzyme kinetics or from competition with a known ligand. Higher therefore signals a looser hold on the target. The half-life is the time in which the quantity being followed falls by half. On to `CC(C)C[C@@H]1NC(=O)[C@H](CCCNC(=N)N)NC(=O)[C@@H](N)CC=CC[C@@H](C(=O)N[C@@H](CCCCN)C(=O)NCC(=O)N2CCC[C@H]2C(=O)N[C@@H](C)C(=O)O)NC(=O)[C@H](CO)NC1=O` [Compound 34, NH2-c[X-R-L-S-X]c-K-G-P-Ala] (H-[AllylGly]RLS[AllylGly]KGPA-OH; staple 1-5), for which the Ki at human APJ (hAPJ) was above 10000 nM. Moreover, in data set [1] (rat plasma), the half-life at 0.182 mM is 48 ± 18 min.

`CC(C)C[C@@H]1NC(=O)[C@H](CCCNC(=N)N)NC(=O)[C@@H](N)CC=CC[C@@H](C(=O)N[C@@H](CCCCN)C(=O)NCC(=O)N2CCC[C@H]2C(=O)N[C@@H](Cc2ccc3ccccc3c2)C(=O)O)NC(=O)[C@H](CO)NC1=O` [Compound 36, NH2-c[X-R-L-S-X]c-K-G-P-2Nal]: the half-life at 0.182 mM in data set [1] (rat plasma) is 24 ± 6 min. The same measure, in the same setting: next, `CC(C)C[C@@H]1NC(=O)[C@H](CCCNC(=N)N)NC(=O)[C@@H](N)CC=CC[C@@H](C(=O)N[C@@H](CCCCN)C(=O)NCC(=O)N2CCC[C@H]2C(=O)N[C@@H](Cc2ccc(OCc3ccccc3)cc2)C(=O)O)NC(=O)[C@H](CO)NC1=O` [Compound 37, NH2-c[X-R-L-S-X]c-K-G-P-TyrOBn]: 30 ± 6 min; `CC(C)C[C@@H]1NC(=O)[C@H](CCCNC(=N)N)NC(=O)[C@@H](N)CC=CC[C@@H](C(=O)N[C@@H](CCCCN)C(=O)NCC(=O)N2CCC[C@H]2C(=O)N[C@@H](Cc2ccc(OCc3ccccc3)c(C3CCCC3)c2)C(=O)O)NC(=O)[C@H](CO)NC1=O` [Compound 38, NH2-c[X-R-L-S-X]c-K-G-P-cypTyr(OBn)]: 678 ± 60 min. The EC50 is the concentration giving half of the maximal effect. Higher therefore signals weaker potency. Turning to `CCCC[C@H](NC(=O)[C@@H]1CCC(=O)NCCCC[C@H](N)C(=O)N[C@@H](CCCNC(=N)N)C(=O)N[C@@H](CCCNC(=N)N)C(=O)N1)C(=O)N[C@H]1CSSC[C@@H](C(=O)N[C@@H](CCCNC(=N)N)C(=O)N[C@H](C(=O)N2CCC[C@H]2C(=O)N[C@@H](Cc2ccccc2)C(=O)N2CCC[C@H]2C(=O)O)C(C)C)NC(=O)[C@H](Cc2c[nH]cn2)NC(=O)[C@H](CC(C)C)NC1=O` [Compound 79, c[K-R-R-E]-Nle-c[C-L-H-C]-R-V-P-F-P] (H-KRRE[Nle]CLHCRVPFP-OH; lactam 1-4; disulfide 6-9), the EC50 at hAPJ receptor [2] came out at 4 ± 0.8 nM; at hAPJ receptor [3], 51 ± 3 nM. The half-life at […] in data set [1] (Table III, rat plasma, read-out: Half-life in vitro (converted)) was above 1020 min. What is called Emax is the maximal effect, on the per cent scale that the assay sets. As to `CCCC[C@H](NC(=O)[C@@H]1CCCN1C(=O)CNC(=O)[C@H](CCCCN)NC(=O)[C@@H]1CC=CC[C@H](NC(=O)[C@H](CCCNC(=N)N)NC(=O)[C@@H]2CCC(=O)N2)C(=O)N[C@@H](CCCNC(=N)N)C(=O)N[C@@H](CC(C)C)C(=O)N[C@@H](CO)C(=O)N1)C(=O)N1CCC[C@H]1C(=O)N[C@@H](Cc1ccccc1)C(=O)O` [Compound 97, Pyr-R-c[X-R-L-S-X]c-K-G-P-Nle-P-F, reference compound], the Emax at hAPJ receptor [2] (HEK293, Table V, read-out: Gαi1 Emax) came to 101%; on hAPJ receptor [3] (HEK293, Table V, read-out: ß-arr2 Emax), 98%. In data set [1] (t1/2 in rat plasma), this molecule gave a half-life at […] of 120 to 300 min.

B1: Compound 94 (KT04-16) (peptide)
peptide: {Benzoyl(4-Br)}-RRSEPLHKRVP[Phe(4-Br)]P
modifications: lactam 4-8
The molecule B1 gave a Ki in data set [4] of 0.29 nM.

B2: Compound 23 (KT01-121) (peptide)
peptide: Guanidine-[AllylGly]RLS[AllylGly]KGP[Nle]PF
modifications: staple 1-5
On to B2, for which the “Gαi1 Emax (%)” value in data set [5] was determined as 103%.

B3: Compound 84 (ABB01-109) (peptide)
peptide: [Nle]PEHSRKPFP
modifications: lactam 3-7
B3 gave a Ki in data set [4] of 274 nM.

B4: Compound 20 (KT01-100) (peptide)
peptide: H-[AllylGly]RLS[AllylGly]KGP[Nle]PF
modifications: staple 1-5
With B4, the “Gαi1 Emax (%)” value in data set [5] was 100%.

B5: Compound 45 (KT04-42b) (peptide)
peptide: H-[AllylGly]RLS[AllylGly]KGP[dY]
modifications: staple 1-5
B5: the “Gαi1 Emax (%)” value in data set [5] was 100%.

B6: Compound 72 (AM03-37) (peptide)
peptide: KRRE[Nle]PLHSRVPFP
modifications: lactam 1-4
In the case of B6, the “EC50 Gail” value in data set [6] came out at 1.7 nM. Further, the inhibition constant (Ki) in data set [4] is 0.87 nM.

B7: Compound 73 (AM03-66) (peptide)
peptide: KRRE[Nle]PLHSRV[Oic]FP
modifications: lactam 1-4
Consider B7, for which the “EC50 Gail” value in data set [6] stood at 14 nM. In data set [4], this molecule came in with a Ki of 11 nM.
